Reference: patent US20060004070A1, “Fungicidal active substance combinations” (priority 2002, published 2006)

Columns and labels:
[1] = test system: Leptosphaeria nodorum; assay: Leptosphaeria nodorum test (wheat)/protective; assay type: in vivo; conditions: protective spray, application rate 100 g/ha, evaluation 10 days after inoculation
Method: Leptosphaeria nodorum test (wheat)/protective Solvent: 25 parts by weight of N,N-dimethylacetamide Emulsifier: 0.6 part by weight of alkylaryl polyglycol ether To produce a suitable preparation of active compound, 1 part by weight of active compound combination is mixed with the stated amounts of solvent and emulsifier, and the concentrate is diluted with water to the desired concentration. To test for protective activity, young plants are sprayed with the preparation of active compound at the stated application rate. After the spray coating has dried on, the plants are sprayed with a spore suspension of Leptosphaeria nodorum. The plants remain in an incubation cabin at 20° C. and 100% relative atmospheric humidity for 48 hours. The plants are placed in a greenhouse at a temperature of about 15° C. and a relative atmospheric humidity of 80%. Evaluation is carried out 10 days after the inoculation. 0% means an efficacy which corresponds to that of the control, whereas an efficacy of 100% means that no infection is observed.

[2] = test system: Puccinia recondita; assay: Puccinia test (wheat)/curative; assay type: in vivo; conditions: curative spray 48 hours after inoculation, application rate 25 g/ha, evaluation 10 days after inoculation
Method: Puccinia test (wheat)/curative
Solvent: 25 parts by weight of N,N-dimethylacetamide
Emulsifier: 0.6 part by weight of alkylaryi polyglycol ether
To produce a suitable preparation of active compound, 1 part by weight of active compound combination is mixed with the stated amounts of solvent and emulsifier, and the concentrate is diluted with water to the desired concentration.
To test for curative activity, young plants are inoculated with a spore suspension of Puccinia recondita in a 0.1% strength aqueous agar solution. 48 hours after the inoculation, the plants are sprayed with the preparation of active compound at the stated application rate.
The plants are placed in a greenhouse at a temperature of about 20° C. and a relative atmospheric humidity of about 80% to promote the development of rust pustules.
Evaluation is carried out 10 days after the inoculation. 0% means an efficacy which corresponds to that of the control, whereas an efficacy of 100% means that no infection is observed.

Compound	Efficacy in % [1] [%]	Efficacy in % [2] [%]
CO/N=C(/C(=O)OC)c1ccccc1CO/N=C(\C)c1cccc(C(F)(F)F)c1 [Ex. (I), 2-[α-{[(α-methyl-3-trifluoromethylbenzyl)imino]oxy}-o-tolyl]glyoxylic acid methyl ester O-methyl oxime]	67	0
OC(Cc1ccccc1Cl)(Cn1nc[nH]c1=S)C1(Cl)CC1 (stereo not shown) [Ex. (II)]	56	43
